# Test results as given in patent US8741923B2, “Oxadiazole fused heterocyclic derivatives useful for the treatment of multiple sclerosis” (Merck Serono SA, priority 2008, dated 2014).
# pEC50, pKi: −log10 of the molar value.
# Key:
# S1P1 [1] = biological target: T1, S1P1 (Homo sapiens (Human), UniProt P21453); experiment: Receptor binding assay ([33P]sphingosine 1-phosphate, SPA) on S1P1 membranes; conditions: membranes from CHO cells expressing S1P1
# Description: (§1) Receptor binding assay: Membranes were prepared from CHO cells expressing S1P1 or S1P3 for use in ligand and 35S-GTPγS binding studies. Cells were suspended in 50 mM TRIS, pH 7.4, 2 mM EDTA, 250 mM Sucrose (buffer A) and 1× Complete protease inhibitor cocktail (Roche), and disrupted at 4° C. by N2 decompression using a cell disruption bomb (Parr Instrument). Following centrifugation at 1000 RPM for 10 min at 4° C., the supernatant was suspended in buffer A and centrifuged again at 19000 RPM for 60 min at 4° C. The pellet was then suspended in 10 mM HEPES, pH 7.4, 1 mM EDTA, 250 mM Sucrose (Buffer B), and 1× Complete EDTA-free protease inhibitor cocktail and homogenized using a potter. Membranes were flash frozen in liquid N2 and stored at −80° C. [33P]sphingosine 1-phosphate (3000 Ci/mmol; American Radiolabeled Chemicals, Inc.) was added to test compounds in DMSO. Membranes and WGA SPA beads (GE Healthcare) were added to give a final volume of 100 μl in 96-well plates with assay concentrations of 25 μM or 10 μM [33P]sphingosine 1-phosphate (respectively for S1P1 or S1P3), 50 mM HEPES, pH 7.5, 5 mM MgCl2, 100 mM NaCl, 0.4% fatty acid-free BSA, 1-5 μg/well of proteins and 100 μg/well of WGA SPA beads. Binding was performed for 60 min at RT on a shaker and bound radioactivity was measured on a PerkinElmer 1450 MicroBeta counter. Specific binding was calculated by subtracting remaining radioactivity in the presence of 1000-fold excess of unlabeled S1P. Binding data were analyzed using the GraphPad Prism program.
# S1P3 = S1P3 (Homo sapiens (Human), UniProt Q99500); experiment: 35S-GTPγS binding, S1P3 membranes; format: biochemical; conditions: membranes from CHO cells expressing S1P3
# S1P3, sequence (Q99500 whole entry, species assumed): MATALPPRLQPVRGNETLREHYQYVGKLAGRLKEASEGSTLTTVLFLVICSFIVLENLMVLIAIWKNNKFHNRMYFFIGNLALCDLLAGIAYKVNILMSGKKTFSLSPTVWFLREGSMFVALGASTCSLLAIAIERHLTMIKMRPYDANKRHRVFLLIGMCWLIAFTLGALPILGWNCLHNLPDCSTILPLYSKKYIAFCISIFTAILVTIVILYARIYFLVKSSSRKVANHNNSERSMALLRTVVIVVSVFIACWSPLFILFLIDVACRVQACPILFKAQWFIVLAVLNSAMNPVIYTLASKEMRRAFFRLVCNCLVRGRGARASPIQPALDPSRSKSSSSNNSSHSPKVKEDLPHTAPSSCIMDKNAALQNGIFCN
# Description: as §1
# (§2) Measurements of 35S-GTPγS Binding:
# Membranes (1 to 10 μg protein) prepared as described above, were incubated in 96-well Scintiplates (PerkinElmer) with test compounds diluted in DMSO, in 180 μl of 20 mM HEPES, pH 7.4, 10 mM MgCl2, 2 μg/well Saponin, 0.2% fatty acid free BSA (Assay buffer), 140 mM NaCl and 1.7 μM GDP. The assay was initiated with the addition of 20 μl of 1.5 nM [35S]-GTPγS (1100 Ci/mmol; GE Healthcare) in assay buffer. After 60 min incubation at 30° C. on a shaker, plates were centrifuged for 10 min at 2000 RPM. Supernatant was discarded and membrane bound radioactivity was measured on a PerkinElmer 1450 MicroBeta counter. Triplicate samples were averaged and expressed as % response relative to S1P activation in absence of compound (n=2).
# S1P1 [2] = biological target: T1, S1P1; experiment: 35S-GTPγS binding, S1P1 membranes; format: biochemical; conditions: membranes from CHO cells expressing S1P1
# Description: as §1, with “Membranes and WGA SPA beads (GE Healthcare) were added to give a final volume of 100 μl in 96-well plates with assay concentrations of 25 μM or 10 μM [33P]sphingosine 1-phosphate (respectively for S1P1 or S1P3), 50 mM HEPES, pH 7.5, 5 mM MgCl2, 100 mM NaCl, 0.4% fatty acid-free BSA, 1-5 μg/well of proteins and 100 μg/well of WGA SPA beads. Binding was performed for 60 min at RT on a shaker and bound radioactivity was measured on a PerkinElmer 1450 MicroBeta counter.” left out
# as §2
# After 60 min incubation at 30° C. on a shaker, plates were centrifuged for 10 min at 2000 RPM. […] Triplicate samples were averaged and expressed as % response relative to S1P activation in absence of compound (n=2).
# T1 sequence (P21453 whole entry, species assumed): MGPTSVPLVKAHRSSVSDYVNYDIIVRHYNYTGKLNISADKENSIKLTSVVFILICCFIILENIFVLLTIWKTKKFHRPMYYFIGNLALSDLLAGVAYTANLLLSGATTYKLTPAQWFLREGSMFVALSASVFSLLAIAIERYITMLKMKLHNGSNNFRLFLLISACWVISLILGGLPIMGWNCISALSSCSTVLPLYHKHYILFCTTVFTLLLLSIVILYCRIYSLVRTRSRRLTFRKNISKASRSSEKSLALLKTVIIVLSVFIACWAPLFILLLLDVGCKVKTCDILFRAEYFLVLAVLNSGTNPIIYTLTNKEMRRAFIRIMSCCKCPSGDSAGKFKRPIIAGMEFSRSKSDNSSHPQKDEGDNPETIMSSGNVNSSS
Structure (SMILES),pKi (S1P1 [1]),pEC50 (S1P3),pEC50 (S1P1 [2])
"CC1CCCCN1c1ccc(-c2nc(-c3ccc4[nH]cnc4c3)no2)cc1C(F)(F)F (stereo not shown) [Compound 1, 5-{5-[4-(2-methylpiperidin-1-yl)-3-(trifluoromethyl)phenyl]-1,2,4-oxadiazol-3-yl}-1H-benzimidazole]",8.30,6.21,7.96
"Cc1cc(-c2nc(-c3ccc4[nH]cnc4c3)no2)cnc1N1CCCCC1C (stereo not shown) [Compound 3, 5-{5-[5-methyl-6-(2-methylpiperidin-1-yl)pyridin-3-yl]-1,2,4-oxadiazol-3-yl}-1H-benzimidazole]",7.42,,7.03
"COCc1cc(-c2nc(-c3ccc4[nH]cnc4c3)no2)ccc1-c1ccccc1C [Compound 4, 5-{5-[2-(methoxymethyl)-2′-methylbiphenyl-4-yl]-1,2,4-oxadiazol-3-yl}-1H-benzimidazole]",8.30,6.49,8.08
"Cc1ccccc1-c1ccc(-c2nc(-c3ccc4nc[nH]c4c3)no2)cc1CN(C)C [Compound 5, 1-{4-[3-(1H-benzimidazol-6-yl)-1,2,4-oxadiazol-5-yl]-2′-methylbiphenyl-2-yl}-N,N-dimethylmethanamine]",8.30,,8.47
"CC1CCCCN1c1ccc(-c2nc(-c3ccc4c(c3)CNCC4)no2)cc1C(F)(F)F (stereo not shown) [Compound 10, 7-{5-[4-(2-methylpiperidin-1-yl)-3-(trifluoromethyl)phenyl]-1,2,4-oxadiazol-3-yl}-1,2,3,4-tetrahydroisoquinoline]",8.52,6.23,7.92
"CC1CCCCN1c1ccc(-c2nc(-c3ccc4[nH]ccc4c3)no2)cc1NS(C)(=O)=O (stereo not shown) [Compound 22, N-[5-[3-(1H-indol-5-yl)-1,2,4-oxadiazol-5-yl]-2-(2-methylpiperidin-1-yl)phenyl]methanesulfonamide]",6.79,,7.80
"Cc1ccccc1-c1ccc(-c2nc(-c3ccc4[nH]ncc4c3)no2)cc1C [Compound 25, 5-[5-(2,2′-dimethylbiphenyl-4-yl)-1,2,4-oxadiazol-3-yl]-1H-indazole]",7.96,,7.49

# The remaining compounds from weak to strong by pKi (S1P1 [1]), led by results:
pKi (S1P1 [1]),pEC50 (S1P3),pEC50 (S1P1 [2]),Structure (SMILES)
8.37,,7.77,"CCC1CCCCN1c1ccc(-c2nc(-c3ccc4[nH]cnc4c3)no2)cc1COC (stereo not shown) [Compound 27, 5-{5-[4-(2-ethylpiperidin-1-yl)-3-(methoxymethyl)phenyl]-1,2,4-oxadiazol-3-yl}-1H-benzimidazole]"
8.40,6.80,8.22,"CC1CCCCN1c1ccc(-c2nc(-c3ccc4c(c3)CNCC4)no2)cc1NS(C)(=O)=O (stereo not shown) [Compound 11, N-{2-(2-methylpiperidin-1-yl)-5-[3-(1,2,3,4-tetrahydroisoquinolin-7-yl)-1,2,4-oxadiazol-5-yl]phenyl}methanesulfonamide]"
8.52,,8.40,"COc1cc(-c2nc(-c3ccc4[nH]ncc4c3)no2)ccc1-c1cscc1C [Compound 24, 5-{5-[3-methoxy-4-(4-methyl-3-thienyl)phenyl]-1,2,4-oxadiazol-3-yl}-1H-indazole]"
8.96,,,"COCc1cc(-c2nc(-c3ccc4c(c3)CCN(CCC(=O)O)C4)no2)ccc1-c1ccccc1C [Compound 40, 3-{6-[5-(2-Methoxymethyl-2′-methyl-biphenyl-4-yl)-[1,2,4]oxadiazol-3-yl]-3,4-dihydro-1H-isoquinolin-2-yl}-propionic acid]"
9.00,,8.22,"COCc1cc(-c2nc(-c3ccc4c(c3)CNCC4)no2)ccc1-c1ccccc1C [Compound 15, 7-{5-[2-(methoxymethyl)-2′-methylbiphenyl-4-yl]-1,2,4-oxadiazol-3-yl}-1,2,3,4-tetrahydroisoquinoline]"
9.10,,8.05,"CC1CCCCN1c1ccc(-c2nc(-c3ccc4c(c3)CNCC4)no2)cc1C#N (stereo not shown) [Compound 12, 2-(2-methylpiperidin-1-yl)-5-[3-(1,2,3,4-tetrahydroisoquinolin-7-yl)-1,2,4-oxadiazol-5-yl]benzonitrile]"
9.15,,8.68,"COCc1cc(-c2nc(-c3ccc4c(c3)CN(CC(=O)O)CC4)no2)ccc1-c1ccccc1C [Compound 16, [7-{5-[2-(methoxymethyl)-2′-methylbiphenyl-4-yl]-1,2,4-oxadiazol-3-yl}-3,4-dihydroisoquinolin-2(1H)-yl]acetic acid]"
